Laboratory results reported in patent US20070270436A1, “NOVEL AMINO- AND IMINO-ALKYLPIPERAZINES” (Recordati Ireland Limited, priority 2006, published 2007).
Like-named read-outs stand apart in the source and are kept apart here.

Assays:
[1] = tested on: rhythmic bladder-voiding contractions; experiment: Rhythmic bladder-voiding contractions induced by bladder filling in anaesthetised rats; format: in vivo, rat; conditions: intravenous administration
Procedure: Female Sprague-Dawley rats weighing 225-275 g (Crl: CD® (SD) IGS BR, Charles River Italia) were used. The animals were housed with free access to food and water and maintained on a forced 12-hour alternating light-dark cycle at 22-24° C. for at least one week, except during the experiment. The activity on rhythmic bladder voiding contractions was evaluated according to the method of Dray (Dray J., Pharmacol. Methods, 13:157, 1985), with some modifications as in Guarneri (Guarneri, Pharmacol. Res. 27:173, 1993). Briefly, the rats were anaesthetised by subcutaneous injection of 1.25 g/kg (5 ml/kg) urethane, after which the urinary bladder was catheterised via the urethra using PE 50 polyethylene tubing filled with physiological saline. The catheter was tied in place with a ligature around the external urethral orifice and was connected to conventional pressure transducers (Statham P23 ID/P23 XL). […] The bladder was then filled via the recording catheter by incremental volumes of warm (37° C.) saline until reflex bladder-voiding contractions occurred (usually 0.8-1.5 ml). For intravenous injection of bioactive compounds, PE 50 polyethylene tubing filled with physiological saline was inserted into the jugular vein.
From the cystometrogram, the number of contractions recorded 15 minutes before (basal values) and after treatment, as well as the mean amplitude of these contractions (mean height of the peaks in mmHg), was evaluated.
Since most compounds produced an effect that was relatively rapid in onset and led to a complete cessation of bladder contractions, bioactivity was conveniently estimated by measuring the duration of bladder quiescence (i.e., the time during which no contractions occurred). The number of tested animals showing a reduction in the number of contractions higher than 30% of that observed in the basal period was recorded too.
The extrapolated doses which induced a reduction in the number of contractions greater than 30% in 50% of the treated rats (ED50) were also evaluated by the method of Bliss (Bliss C. I., Quart J. Pharm. Pharmacol. 11, 192-216, 1938).

5-HT1A receptors = molecular target: T1, 5-HT1A receptors (Rattus norvegicus, UniProt P19327); experiment: Inhibition of serotonergic syndrome (forepaw treading) induced by 8-OH-DPAT in rats (post-synaptic antagonism); format: in vivo; conditions: for inhibition at 10 mg/kg: rat
T1 construct: from tissue; host or cells: living male Sprague-Dawley rats (whole animal, behavioural read-out)
T1 sequence (P19327 1-422): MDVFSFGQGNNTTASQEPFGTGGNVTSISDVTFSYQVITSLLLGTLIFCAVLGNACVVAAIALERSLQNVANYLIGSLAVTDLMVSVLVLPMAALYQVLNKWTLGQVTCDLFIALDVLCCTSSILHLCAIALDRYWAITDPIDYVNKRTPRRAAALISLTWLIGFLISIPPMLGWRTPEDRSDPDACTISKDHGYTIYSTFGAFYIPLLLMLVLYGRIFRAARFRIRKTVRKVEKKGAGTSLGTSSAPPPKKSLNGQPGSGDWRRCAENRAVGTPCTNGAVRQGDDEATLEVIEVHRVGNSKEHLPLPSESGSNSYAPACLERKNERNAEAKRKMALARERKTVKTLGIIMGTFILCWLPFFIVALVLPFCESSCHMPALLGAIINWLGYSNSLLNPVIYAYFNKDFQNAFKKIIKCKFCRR
Procedure: The inhibitory effect of 5-HT1A-receptor antagonists on stereotyped forepaw treading induced in rats by subcutaneous injection of 8-OH-DPAT was evaluated by the method of Tricklebank (Tricklebank et al., Eur. J. Pharmacol., 117: 15, 1985) with minor modifications as described below.
Male Sprague-Dawley rats [Crl: CD® (SD) IGS BR] weighing 150-175 g from Charles River Italia were used. The animals were housed with free access to food and water and maintained on a forced 12-hour-light/12-hour-dark cycle at 22-24° C. of temperature. On the day of the experiment, the rats were placed singly in clear plastic containers, 10-15 minutes before oral administration of the vehicle or compounds to be tested. For evaluation of antagonistic activity, the compounds were administered 1 and 4 hours before induction of stereotypy by 8-OH-DPAT (1 mg/kg subcutaneously). Observation sessions lasted 30 seconds and began 3 minutes after 8-OH-DPAT treatment and were repeated every 3 minutes over a period of 15 minutes.
The appearance of the symptoms induced by postsynaptic stimulation of 5-HT1A receptors was noted, and the intensity was scored using an intensity scale in which: 0=absent, 1=equivocal, 2=present and 3=intense. Behavioural scores for treated rats were accumulated throughout the observation time (5 observation periods) and expressed as mean values of 4 rats/dose. Change in mean values of treated animals in comparison with control (vehicle) group, expressed as per-cent inhibition, was used to quantify the antagonistic activity.
In order to quantitate the potency of the compound of Example 24 in inhibiting the stereotypy (forepaw treading) induced by 8-OH-DPAT, an ED50 value (dose inhibiting by 50% the forepaw treading) was evaluated by means of linear regression using the least square method.

Row | SMILES | ED50 (frequency) (extrapolated dose inducing a reduction of the number of contractions >30% in 50% of treated rats) [1] [mg/kg] | ED10 min (extrapolated dose inducing 10 minutes of disappearance of the contractions) [1] [mg/kg] | % Inhibition of forepaw treading, 1 h (5-HT1A receptors; 10 mg/kg p.o., 1 h before 8-OH-DPAT 1 mg/kg s.c.) [%] | % Inhibition of forepaw treading, 4 h (5-HT1A receptors; 10 mg/kg p.o., 4 h before 8-OH-DPAT 1 mg/kg s.c.) [%] | ED50 (dose inhibiting by 50% the forepaw treading) (95% CL), 1 hour (5-HT1A receptors; 1 hour after oral administration) | ED50 (dose inhibiting by 50% the forepaw treading) (95% CL), 4 hours (5-HT1A receptors; 4 hours after oral administration) | inhibition at 10 mg/kg (5-HT1A receptors; 10 mg/kg p.o., 1 h before 8-OH-DPAT 1 mg/kg s.c., read-out: % Inhibition of forepaw treading, 1 h) [%] | inhibition at 10 mg/kg (5-HT1A receptors; 10 mg/kg p.o., 4 h before 8-OH-DPAT 1 mg/kg s.c., read-out: % Inhibition of forepaw treading, 4 h) [%]
1 | COc1ccccc1N1CCN(CCC(c2ccccc2F)C(C2CCCCC2)N(C)C(C)=O)CC1 (racemic) [Example 16, (RS,SR)- and (RS,RS)-N-{-1-Cyclohexyl-2-(2-fluorophenyl)-4-[4-(2-methoxyphenyl)piperazin-1-yl]butyl}-N-methylacetamide] | 0.031 | 0.072 | 80 | 69 |  |  |  | 
2 | COc1ccccc1N1CCN(CC[C@@H](c2ccccc2F)[C@H](NC(=S)N(C)C)C2CCCCC2)CC1 (racemic) [Example 24, 3-{(RS,SR)-1-Cyclohexyl-2-(2-fluorophenyl)-4-[4-(2-methoxyphenyl)-piperazin-1-yl]butyl}-1,1-dimethylthiourea] |  |  |  |  | 2.86 (2.12-3.8) mg/kg p.o. | 3.67 (2.81-4.93) mg/kg p.o. | 100 | 90
